Laboratory results published in US7026317B2, “Pyrazolotriazines as CRF antagonists” (Bristol-Myers Squibb Pharma Company, priority 1999, dated 2006).

SMILES	melting point [°C]
CCc1nn2c(-c3ccc(Cl)cc3Cl)nc(C)nc2c1C(CC)CC [compound 1, 4-(2,4-dichlorophenyl)-8-(3-pentyl)-7-ethyl-2-methyl-pyrazolo[1,5-a]-1,3,5-triazine]	91 to 93
CCc1nn2c(-c3ccc(Cl)cc3Cl)nc(C)nc2c1N(CC)CC [compound 3, 4-(2,4-dichlorophenyl)-8-diethylamino-7-ethyl-2-methyl-pyrazolo[1,5-a]-1,3,5-triazine]	98 to 99
